# Assay results taken from patent US20230135127A1, “COMPOSITIONS AND METHODS FOR DISEASE TREATMENT AND PREVENTION BY PH MODIFIERS AND/OR CELL PROLIFERATION INHIBITORS” (priority 2021, published 2023).
# Structures can show the parent of a compound that is named as a salt. Where two headings read alike, the source gives them in different places.
# What was measured:
# [1] = tested on: inflammatory infiltration in the lung tissues; assay: Asthma model: H&E staining of lung tissue; conditions: i.t. HOAc or HCl; i.p. NaOH
# [2] = tested on: mucus secretion in the lungs; assay: Asthma model: PAS staining of lung tissue; conditions: i.t. HOAc or HCl; i.p. NaOH
# [3] = tested on: thymocytes; assay: Asthma model: thymus and thymocyte populations in vivo; parameters: species or system mice; conditions: for size of the thymus vs saline (gross examination): 3 days after final challenge and treatment; for percentage of Ki-67hi total thymocytes: saline 22.7%; for percentage of DP (CD4+CD8+) thymocyte subpopulation: saline 69.7%
# Procedure: (§1) Cells were washed 3 times with PBS then stained with Zombie viability dyes at room temperature for 20 minutes. At the end of incubation, 10% volume of FBS was added to absorb excess Zombie dyes. After washes, the cells were stained with conjugated antibodies against surface antigens on ice. As specified in some experiments, the cells were subsequently stained with fluorochrome-conjugated Avidin. For Annexin V staining, cells were washed twice with plain PBS and once with Annexin V binging buffer (10 mM HEPES, pH7.4, 140 mM NaCl, 2.5 mM CaCl2)) after surface antigen staining, and incubated with fluorochrome-conjugated Annexin V in Annexin V binding buffer for 15 min at room temperature. The cells were washed twice in Annexin V binding buffer and resuspended in Annexin V binding buffer. 7-AAD was added to the cells before analyzed by flow cytometry. For Ki-67 and Foxp3 staining, lymphocytes (after Zombie dye and surface antigen staining) or tumor cells (without surface antigen staining) were fixed and permeabilized using Foxp3 staining buffer kit, then stained with PE-conjugated anti-mouse or human Ki-67 antibodies. (Biolegend, San Diego, Calif., USA). Stained and unstained cells were analyzed on Accuri C6 Flow Cytomer (Accuri Cytometers, Inc., Ann Arbor, Mich.), FACS Canto (BD Bioscience, San Jose, Calif., USA) and Attune™ cytometer (Invitrogen, Carlsbad, Calif.). Data analyses were carried out using FlowJo X.
# In the asthma model, OVA sensitized mice were challenged with OVA by i.t. injection every other day for 3 times. The mice received i.t. treatment with saline, HCl or HOAc at the same time as challenge, or i.p. treatment with NaOH 1 hour after the challenge. Thymuses were harvested 3 days after the final challenge and treatment. […] (FIG. 20a). […] The thymocytes can be divided into Ki-67 high, low and negative populations. (FIG. 20b).
# [4] = tested on: Jurkat cells
# Procedure: Jurkat and Raji tumor cell lines were maintained in Complete RPMI-1640 Medium (RPMI-1640 plus 1× GlutaMAX, 100 U/ml Pen-Strep (Gibco Life Technologies, Grand Island, N.Y., USA), and 5% heat-inactivated fetal bovine serum (FBS) (Atlanta Biologicals, Flowery Branch, Ga., USA)) at 37° C. and 5% CO2. The tumor cells were washed 3 times with saline plus 1% FBS before in vitro treatments with saline or saline plus pH modifiers.
# For studies of the effects of pH modifier on proliferating cells, primary thymocytes or lymph node cells (4×10^6 cells/ml) were incubated in FBS comprising 10% of saline or 87.5 mM HCl, HOAc or NaOH prepared in saline in 37° C. water bath for 5 hours before analyses. The tumor cells (2×10^6 cells/ml) were incubated in FBS comprising 10% saline or 87.5 mM HCl, HOAc, or NaOH prepared in saline in 37° C. water bath for 3-5 hours.
# as §1, with “For Ki-67 and Foxp3 staining, lymphocytes (after Zombie dye and surface antigen staining) or tumor cells (without surface antigen staining) were fixed and permeabilized using Foxp3 staining buffer kit, then stained with PE-conjugated anti-mouse or human Ki-67 antibodies. (Biolegend, San Diego, Calif., USA).” left out, “Data analyses were carried out using FlowJo X.” left out
# [5] = tested on: mediastinal lymph node (MLN) cells; conditions: for percentage of Ki-67hi Lym1 B cells: saline 4.29%; for percentage of Ki-67hi Lym2 B cells: saline 35.2%; for percentage of Lym2 lymphocytes in MLN: saline 2.26%; for percentage of Ki-67hi B cells in Lym1: saline 3.91%; for CD8 T cells within Lym1: saline 13.9%; for percentage of Lym1 lymphocytes in MLN: saline 73.7%
# Procedure: For the analyses of the effects of pH modifiers on lymphocyte populations and their proliferation in vivo in Example 3, the mice were sensitized, challenged with OVA and received either i.t. or i.p. treatments. The same challenge and treatment solutions as in the asthma model were used. In the first set of experiments, the mice were challenged with 60 μl of 1×OVA challenge solution without pH modifiers by i.t. injection for 2 consecutive days. One day of the second challenge, the mice received one-time i.t. treatment with saline or saline plus HCl or HOAc. The mice were sacrificed the next day by CO2 inhalation to collect lymphoid tissues. In the second set of experiments, the mice were challenged with OVA and treated with i.t. instillation of saline or saline plus HCl or HOAc or treated with i.p. injection of saline plus NaOH for a total of 3 doses as in the asthma model. On day 3 after the final challenge and treatment, mice were sacrificed by CO2 inhalation to collect lymphoid tissues.
# as §1
# The DLNs are the primary location where active immune responses to local antigen exposure take place. The DLNs of the lungs are the mediastinal lymph nodes (MLNs). Two sets of experiments using the OVA sensitization and challenge models were carried out to investigate whether pH modifiers can affect lymphocyte populations and proliferation. In the first set of experiments, MLNs were collected from the mice 3 days after the first OVA challenge and 1 day after a single treatment. In the second set of experiments, MLNs were collected 7 days after the initial challenge and 3 days after the third treatments.
# [6] = tested on: CD4 T cells in BALF and MLN; conditions: for Treg cells, % of total CD4 T cells, BALF: saline 7.46%; for Treg cells, % of total CD4 T cells, MLN: saline 11.80%
# Procedure: (92, 93). […] For challenge, 2× concentrated solution was prepared by mixing 100 μg OVA protein and 1 μg […] peptide (Molecular Resources, Fort Collins, Colo., USA) in 30 μl saline per mouse, and kept on ice. Immediately before i.t. (intratracheal) injection the 30 μl 2×OVA solution was mixed with equal volume of 2× treatment solution (350 mM HOAc or HCl in saline) and instilled into the trachea of the mouse. The mice were challenged every other day for a total of 3 times.
# The total mixture (60 μl) was instilled into the trachea of the mouse. The mice were treated every other day for a total of 3 times.
# as §1
# [7] = FBS with 10% of 87.5 mM modifier, 37° C., 3-5 hours, saline 73.4%
# [8] = 3 days after third treatment, saline 5.96×10^7
# [9] = 1 day after single i.t. treatment
# [10] = 1 day after single i.t. treatment, saline 4.5×10^7
structure (smiles),measurement,setting,value
"[Na+].[OH-] [NaOH, sodium hydroxide]",inflammatory infiltration in the lungs (H&E),[1],"prominent in the perivascular areas, but not very noticeable in the peribronchial areas"
same,mucus secretion (PAS staining) in the lungs,[2],no reduction of mucus secretion or PAS staining
same,size of the thymus vs saline (gross examination),[3],similar
same,increase of total numbers of thymocytes vs saline,[3]; i.p. NaOH,about 28%
same,percentage of Ki-67hi total thymocytes,[3],31.7%
same,percentage of DP (CD4+CD8+) thymocyte subpopulation,[3],77.6%
same,viability (live cells) of Jurkat cells,[4]; [7],70.4%
same,increase of total MLN cells vs saline,[5]; 3 days after third i.p. treatment,32%
same,average number of total MLN cells,[5]; [8],7.9×10^7
same,Ki-67 mean fluorescence intensities of Ki-67hi Lym2 and Lym2 B cells vs saline,[5]; second set,higher
same,percentage of Ki-67hi Lym1 cells,"[5]; second set, saline 2.73%",3.48%
same,percentage of Ki-67hi Lym1 B cells,[5]; second set,4.23%
same,percentage of Ki-67hi Lym2 cells,"[5]; second set, saline 34.9%",42.2%
same,percentage of Ki-67hi Lym2 B cells,[5]; second set,44.7%
same,"CD44+ cells in Foxp3- CD4 T cells, BALF",[6]; BALF,80.6%
same,"Treg cells, % of total CD4 T cells, BALF",[6]; BALF,6.97%
same,"Treg cells, % of total CD4 T cells, MLN",[6],11.46%
"CC(=O)O [HOAc, acetic acid]",inflammatory infiltration in the lungs (H&E),[1],diminished
same,mucus secretion (PAS staining) in the lungs,[2],only faint PAS staining
same,size of the thymus vs saline (gross examination),[3],dramatically smaller
same,decrease of total numbers of thymocytes vs saline,[3]; i.t. HOAc,~90%
same,percentage of Ki-67hi total thymocytes,[3],15.4%
same,percentage of DP (CD4+CD8+) thymocyte subpopulation,[3],43.8%
same,viability (live cells) of Jurkat cells,"[4]; human, 8.75 mM",34.3%
same,reduction of total MLN cells vs saline,[5]; [9],84%
same,average number of total MLN cells,[5]; [10],0.75×10^7
same,reduction of total MLN cells vs saline,[5]; 3 days after third treatment,29%
same,average number of total MLN cells,[5]; [8],4.23×10^7
same,percentage of Lym2 lymphocytes in MLN,[5]; first set,0.35%
same,percentage of Ki-67hi Lym1 cells,"[5]; first set, saline 3.31%",1.65%
same,percentage of Ki-67hi B cells in Lym1,[5]; first set,1.58%
same,CD8 T cells within Lym2,"[5]; first set, saline 9.69%",2.7%
same,CD8 T cells within Lym1,[5]; first set,1.75%
same,CD4 T cells within Lym2,"[5]; first set, saline 14.2%",3.23%
same,CD4 T cells within Lym1,"[5]; first set, saline 39.6%",8.17%
same,B cells within Lym1,"[5]; first set, saline 42.5%",22.2%
same,percentage of Ki-67hi Lym2 cells,"[5]; first set, saline 54.5%",27.2%
same,B cells within Lym2,"[5]; first set, saline 62.6%",46.9%
same,percentage of Ki-67hi B cells in Lym2,"[5]; first set, saline 62.6%",37.9%
same,percentage of Lym1 lymphocytes in MLN,[5]; first set,32.4%
same,percentage of Ki-67lo cells in Lym1,"[5]; first set, saline 80.4%",32.9%
same,Ki-67 mean fluorescence intensities of Ki-67hi Lym2 and Lym2 B cells vs saline,[5]; second set,much lower
same,increase of B cells within Lym1 vs saline,[5]; second set,60.4%
same,reduction of CD4 T cells within Lym1 vs saline,[5]; second set,19.3%
same,reduction of CD4 T cells within Lym2 vs saline,[5]; second set,88%
same,reduction of CD8 T cells within Lym1 vs saline,[5]; second set,46.8%
same,reduction of CD8 T cells within Lym2 vs saline,[5]; second set,91.7%
same,percentage of Ki-67hi Lym1 cells,"[5]; second set, saline 2.73%",2.67%
same,CD8 T cells within Lym2,"[5]; second set, saline 4.21%",0.35%
same,percentage of Ki-67hi Lym1 B cells,[5]; second set,2.38%
same,CD4 T cells within Lym2,"[5]; second set, saline 6.91%",0.8%
same,percentage of Lym2 in MLN,"[5]; second set, saline 8.10%",38.7%
same,CD8 T cells within Lym1,[5]; second set,7.39%
same,B cells within Lym1,"[5]; second set, saline 27.3%",43.8%
same,percentage of Ki-67hi Lym2 cells,"[5]; second set, saline 34.9%",25.3%
same,percentage of Ki-67hi Lym2 B cells,[5]; second set,24.9%
same,CD4 T cells within Lym1,"[5]; second set, saline 54.9%",44.3%
same,B cells within Lym2,"[5]; second set, saline 84%",93%
same,"Treg cells, % of total CD4 T cells, BALF",[6]; BALF,7.18%
same,"Treg cells, % of total CD4 T cells, MLN",[6],11.53%
"Cl [HCl, hydrochloric acid]",inflammatory infiltration in the lungs (H&E),[1],diminished
same,mucus secretion (PAS staining) in the lungs,[2],only faint PAS staining
same,size of the thymus vs saline (gross examination),[3],dramatically smaller
same,viability (live cells) of Jurkat cells,[4]; [7],22.1%
same,reduction of total MLN cells vs saline,[5]; [9],12%
same,average number of total MLN cells,[5]; [10],4.0×10^7
same,reduction of total MLN cells vs saline,[5]; 3 days after third treatment,5.5%
same,average number of total MLN cells,[5]; [8],5.6×10^7
same,percentage of Lym2 lymphocytes in MLN,[5]; first set,2.83%
same,percentage of Ki-67hi Lym1 cells,"[5]; first set, saline 3.31%",2.92%
same,percentage of Ki-67hi B cells in Lym1,[5]; first set,2.79%
same,CD8 T cells within Lym2,"[5]; first set, saline 9.69%",8.2%
same,CD4 T cells within Lym2,"[5]; first set, saline 14.2%",13.4%
same,B cells within Lym1,"[5]; first set, saline 42.5%",34.4%
same,percentage of Ki-67hi Lym2 cells,"[5]; first set, saline 54.5%",49.1%
same,B cells within Lym2,"[5]; first set, saline 62.6%",44.8%
same,percentage of Ki-67hi B cells in Lym2,"[5]; first set, saline 62.6%",51.1%
same,percentage of Lym1 lymphocytes in MLN,[5]; first set,68.3%
same,Ki-67 mean fluorescence intensities of Ki-67hi Lym2 and Lym2 B cells vs saline,[5]; second set,much lower
same,percentage of Ki-67hi Lym1 cells,"[5]; second set, saline 2.73%",2.42%
same,percentage of Ki-67hi Lym1 B cells,[5]; second set,3.62%
same,percentage of Ki-67hi Lym2 cells,"[5]; second set, saline 34.9%",34.9%
same,percentage of Ki-67hi Lym2 B cells,[5]; second set,35.5%
same,"Treg cells, % of total CD4 T cells, BALF",[6]; BALF,4.45%
same,"Treg cells, % of total CD4 T cells, MLN",[6],9.12%
